Data on 1 compound can be found in patent US9596851B1, “Method for controlling growth of red palm weevil” (priority 2015, dated 2017).

In experiment [1] the test system is Red Palm Weevil larvae. Briefly: Growth indices bioassay (nutritional indices ECI, ECD, AD) on coumarin-incorporated artificial diet. It is filed as in vivo, Rhynchophorus ferrugineus. To be noted: 72 hours post exposure; for inhibition at 1000 ppm: Rhynchophorus ferrugineus, feed or water, 72 h, 1000 ppm in diet. The procedure:
Impact of different doses of coumarin on the growth and development of different larval instars of red palm weevil was evaluated by growth indices bioassays. All the solutions of coumarin were prepared by dissolving in 0.05% acetone. The ingredients of artificial diet (wheat flour @ 45 g/L, corn flour @ 45 g/L, Yeast @ 45 g/L, Agar @ 17.5 g/L, Sorbic acid @ 1.6 g/L, L-Ascorbic Acid @ 4 g/L, Pharmaton (2 capsules/L), Tetracycline @ 500 mg/L) were dissolved in 1 L of coumarin solution with strength 200 mg/L, 400 mg/L, 600 mg/L, 800 mg/L and 1000 mg/L of coumarin, separately. Newly moulted 4th, 8th and 12th instar Red Palm Weevil larvae were allowed to feed on each diet separately in perforated plastic bowls. In case of control treatment, 0.05% acetone was used to prepare the diet. Twenty larvae were used to compile one replicate. Five replicates were prepared likewise. The fresh diet was daily provided to the larvae. The experimental units were incubated at 30±1° C. and 75%±5% relative humidity. Initial and final weight of the larvae and the frass produced during 72 hours post exposure was also measured. These measurements were used to determine the impact of coumarin on the nutritional indices including: Approximate Digestibility [AD=([…]−frass weight)/food ingested×100], Efficacy of conversion of digested food [ECD=weight gained by the larva/(food ingested−dry weight of frass)×100] and Efficacy of conversion of ingested food [ECI=100×dry weight gained by the larva/dry weight of food consumed].
For growth indices, measurements were made 72 hours post-exposure on dry matter basis. Larvae, frass and remaining food after 72 h were dried at 60° C. until constant weight. Growth indices data were analyzed by one way analysis of variance (ANOVA). Means were compared by Fisher's Least Significant Difference (LSD) test.

The subject of experiment [2] is Red Palm Weevil larvae. Put plainly: Insecticidal potential of coumarin at different doses incorporated in artificial diet (mortality bioassay). The following applies: for EC50 / LD50: artificial diet, after three days. It is filed as in vivo, Rhynchophorus ferrugineus. As to the method: Insecticidal potential of coumarin at different dose concentrations (200 ppm, 400 ppm, 600 ppm, 800 ppm and 1000 ppm) was evaluated against 4th, 8th and 12th instar Red Palm Weevil larvae. The above mentioned concentrations of coumarin were prepared by dissolving coumarin in 0.05% acetone. The ingredients of artificial diet (wheat flour @ 45 g/L, corn flour @ 45 g/L, Yeast @ 45 g/L, Agar @ 17.5 g/L, Sorbic acid @ 1.6 g/L, L-Ascorbic Acid @ 4 g/L, Pharmaton (2 capsules/L), Tetracycline @ 500 mg/L) were dissolved in 1 L of coumarin solution with strength 200 mg/L, 400 mg/L, 600 mg/L, 800 mg/L and 1000 mg/L, separately. The newly moulted 4th, 8th and 12th instar Red Palm Weevil larvae were allowed to feed on each diet separately in perforated plastic bowls. In case of control treatment, 0.05% acetone was used to prepare the diet. Twenty larvae were used to compile one replicate. Five replicates were prepared likewise. The fresh diet was provided daily to the larvae. The experimental units were incubated at 30±1° C. and 75%±5% relative humidity. Abbot formula was used to correct the control mortality (Abbott, 1925). Efficacy of coumarin was determined at each dose to calculate LD50 values.

The mark [3] stands for this setting: 4th, 8th and 12th instar larvae, 200-1000 ppm in diet.

The structures appear in SMILES notation. Read-outs that look alike come from different tables or passages of the source.

`O=c1ccc2ccccc2o1` [coumarin]: the “approximate digestibility (AD)” value in experiment [1] (setting [3]) was “significantly increased”. In addition, the inhibition at 1000 ppm in experiment [1] (4th instar larvae, read-out: ECD (efficacy of conversion of digested food) inhibition compared to control) came to 96.9%; in experiment [1] (4th instar larvae, read-out: ECI (efficacy of conversion of ingested food) inhibition compared to control), 95.6%; in experiment [1] (8th instar larvae, read-out: ECD (efficacy of conversion of digested food) inhibition compared to control), 89%; in experiment [1] (8th instar larvae, read-out: ECI (efficacy of conversion of ingested food) inhibition compared to control), 84%; in experiment [1] (12th instar larvae, read-out: ECD (efficacy of conversion of digested food) inhibition compared to control), 78.5%; in experiment [1] (12th instar larvae, read-out: ECI (efficacy of conversion of ingested food) inhibition compared to control) it was 69.4%. Moreover, the EC50 in experiment [2] (4th instar larvae) is recorded as 293.77 ppm; in experiment [2] (8th instar larvae), 438.32 ppm; in experiment [2] (12th instar larvae), 559.77 ppm. The values for the LD50 in experiment [2] (4th instar larvae), in experiment [2] (8th instar larvae) and in experiment [2] (12th instar larvae) were 404.55 ppm, 509.37 ppm and 708.24 ppm, respectively. Moreover, in experiment [2] (setting [3]), the mortality versus dose result was “directly proportional”.

Usually inhibition stands for the change of the read-out against control, counted positive when it falls.
